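All cell lines were grown in 96-well plates and treated with compound for 48 hours. TGI denotes the concentration required for complete inhibition of growth.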
What was measured:
Assay in all cases: NCI-60 cell line screen, 48 h
786-0 renal = system: 786-0 renal
A498 renal = system: A498 renal
A549 NSCLC = system: A549 NSCLC
ACHN renal = system: ACHN renal
CAKI-1 renal = system: CAKI-1 renal
CCRF-CEM leukemia = system: CCRF-CEM leukemia
COLO 205 colon = system: COLO 205 colon
DLD-1 colon = system: DLD-1 colon
DMS 114 small cell lung = system: DMS 114 small cell lung
DMS 273 small cell lung = system: DMS 273 small cell lung
EKVX NSCLC = system: EKVX NSCLC
HCC-2998 colon = system: HCC-2998 colon
HCT-116 colon = system: HCT-116 colon
HL-60(TB) leukemia = system: HL-60(TB) leukemia
HOP-62 NSCLC = system: HOP-62 NSCLC
HOP-92 NSCLC = system: HOP-92 NSCLC
HT29 colon = system: HT29 colon
IGROV1 ovarian = system: IGROV1 ovarian
K-562 leukemia = system: K-562 leukemia
KM12 colon = system: KM12 colon
LOX IMVI melanoma = system: LOX IMVI melanoma
LXFL 529 NSCLC = system: LXFL 529 NSCLC
M14 melanoma = system: M14 melanoma
M19-MEL melanoma = system: M19-MEL melanoma
MALME-3M melanoma = system: MALME-3M melanoma
MOLT-4 leukemia = system: MOLT-4 leukemia
NCI-H226 lung = system: NCI-H226 lung
NCI-H23 lung = system: NCI-H23 lung
NCI-H460 lung = system: NCI-H460 lung
NCI-H522 lung = system: NCI-H522 lung
OVCAR-3 ovarian = system: OVCAR-3 ovarian
OVCAR-4 ovarian = system: OVCAR-4 ovarian
OVCAR-5 ovarian = system: OVCAR-5 ovarian
OVCAR-8 ovarian = system: OVCAR-8 ovarian
RPMI-8226 leukemia = system: RPMI-8226 leukemia
RXF 393 renal = system: RXF 393 renal
SF-268 CNS = system: SF-268 CNS
SF-295 CNS = system: SF-295 CNS
SF-539 CNS = system: SF-539 CNS
SK-MEL-2 melanoma = system: SK-MEL-2 melanoma
SK-MEL-28 melanoma = system: SK-MEL-28 melanoma
SK-MEL-5 melanoma = system: SK-MEL-5 melanoma
SK-OV-3 ovarian = system: SK-OV-3 ovarian
SN12C renal = system: SN12C renal
SNB-19 CNS = system: SNB-19 CNS
SNB-75 CNS = system: SNB-75 CNS
SNB-78 CNS = system: SNB-78 CNS
SR leukemia = system: SR leukemia
SW-620 colon = system: SW-620 colon
TK-10 renal = system: TK-10 renal
U251 CNS = system: U251 CNS
UACC-257 melanoma = system: UACC-257 melanoma
UACC-62 melanoma = system: UACC-62 melanoma
UO-31 renal = system: UO-31 renal

Compound: CC(=O)NC1=C(C)C(=O)c2c(nc3n2CCC3OC(=O)c2ccccc2)C1=O (centres undefined)
- TGI (786-0 renal): 14.9 µM
- TGI (A498 renal): 25.3 µM
- TGI (A549 NSCLC): 3.1 µM
- TGI (ACHN renal): 8.72 µM
- TGI (CAKI-1 renal): 4.78 µM
- TGI (CCRF-CEM leukemia): 4.44 µM
- TGI (COLO 205 colon): 12.5 µM
- TGI (DLD-1 colon): 4.46 µM
- TGI (DMS 114 small cell lung): 2540 nM
- TGI (DMS 273 small cell lung): 5.28 µM
- TGI (EKVX NSCLC): 3.01 µM
- TGI (HCC-2998 colon): 12.1 µM
- TGI (HCT-116 colon): 4.1 µM
- TGI (HL-60(TB) leukemia): 5.13 µM
- TGI (HOP-62 NSCLC): 5.56 µM
- TGI (HOP-92 NSCLC): 4.7 µM
- TGI (HT29 colon): 3.48 µM
- TGI (IGROV1 ovarian): 3.98 µM
- TGI (K-562 leukemia): 6.17 µM
- TGI (KM12 colon): 10.3 µM
- TGI (LOX IMVI melanoma): 2960 nM
- TGI (LXFL 529 NSCLC): 2900 nM
- TGI (M14 melanoma): 3.47 µM
- TGI (M19-MEL melanoma): 3.57 µM
- TGI (MALME-3M melanoma): 3.38 µM
- TGI (MOLT-4 leukemia): 5.57 µM
- TGI (NCI-H226 lung): 4.69 µM
- TGI (NCI-H23 lung): 3.55 µM
- TGI (NCI-H460 lung): 5.13 µM
- TGI (NCI-H522 lung): 4.06 µM
- TGI (OVCAR-3 ovarian): 528 nM
- TGI (OVCAR-4 ovarian): 3.2 µM
- TGI (OVCAR-5 ovarian): 3.54 µM
- TGI (OVCAR-8 ovarian): 2950 nM
- TGI (RPMI-8226 leukemia): 5.62 µM
- TGI (RXF 393 renal): 11.6 µM
- TGI (SF-268 CNS): 4.52 µM
- TGI (SF-295 CNS): 3.06 µM
- TGI (SF-539 CNS): 3.4 µM
- TGI (SK-MEL-2 melanoma): 3.19 µM
- TGI (SK-MEL-28 melanoma): 3.67 µM
- TGI (SK-MEL-5 melanoma): 3.12 µM
- TGI (SK-OV-3 ovarian): 8.51 µM
- TGI (SN12C renal): 3.41 µM
- TGI (SNB-19 CNS): 7.65 µM
- TGI (SNB-75 CNS): 6.36 µM
- TGI (SNB-78 CNS): 5.46 µM
- TGI (SR leukemia): 6 µM
- TGI (SW-620 colon): 4.55 µM
- TGI (TK-10 renal): 24.1 µM
- TGI (U251 CNS): 3.86 µM
- TGI (UACC-257 melanoma): 2930 nM
- TGI (UACC-62 melanoma): 3.44 µM
- TGI (UO-31 renal): 6.3 µM
